Key:
Test in all cases: relative viability (nuclei count vs DMSO), 5 days (fraction); higher = more cells survive
QS11 + Decitabine = compound: C1CC2=C(C1)C=C(C=C2)OC3=NC(=C4C(=N3)N(C=N4)CC5=CC=C(C=C5)C6=CC=CC=C6)N[C@@H](CC7=CC=CC=C7)CO [QS11] + Nc1ncn([C@H]2C[C@H](O)[C@@H](CO)O2)c(=O)n1 [Decitabine] (partner 2 µM)
Procedure, shortened: (§1)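 Five library-drug doses in √10 steps were combined with a fixed anchor-drug dose, or a single drug was given alone, by pin tool to lung cancer cell lines in 1536-well plates the day after seeding. Nuclei were stained and counted after 5 days. Relative viability is the nuclei count in treated wells over that in vehicle wells, taken as the median of duplicate plates.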

AZ628 + Olaparib = compound: CC1=C(C=C(C=C1)NC(=O)C2=CC(=CC=C2)C(C)(C)C#N)NC3=CC4=C(C=C3)N=CN(C4=O)C [AZ628] + O=C(c1cc(Cc2n[nH]c(=O)c3ccccc23)ccc1F)N1CCN(C(=O)C2CC2)CC1 [Olaparib] (partner 8 µM)
Procedure, shortened: as §1

[1] = compound: C[As](C)SC[C@H](NC(=O)CC[C@H](N)C(=O)O)C(=O)NCC(=O)O [Darinaparsin] + C[C@@H](Oc1cc(-c2cnn(C3CCNCC3)c2)cnc1N)c1c(Cl)ccc(F)c1Cl [Crizotinib] (partner 1 µM)
Procedure, shortened: as §1

[2] = compound: C[As](C)SC[C@H](NC(=O)CC[C@H](N)C(=O)O)C(=O)NCC(=O)O [Darinaparsin] + C[C@]1(O)C[C@@H](c2nc(-c3ccc4ccc(-c5ccccc5)nc4c3)c3c(N)nccn32)C1 [Linsitinib] (partner 1 µM)
Procedure, shortened: as §1

| Cell Line | relative viability (QS11 + Decitabine; first compound 0.08 µM) | relative viability (QS11 + Decitabine; first compound 0.253 µM) | relative viability (QS11 + Decitabine; first compound 0.8 µM) | relative viability (QS11 + Decitabine; first compound 2.53 µM) | relative viability (QS11 + Decitabine; first compound 8 µM) | relative viability (AZ628 + Olaparib; first compound 0.08 µM) | relative viability (AZ628 + Olaparib; first compound 0.253 µM) | relative viability (AZ628 + Olaparib; first compound 0.8 µM) | relative viability (AZ628 + Olaparib; first compound 2.53 µM) | relative viability (AZ628 + Olaparib; first compound 8 µM) | relative viability ([1]; first compound 0.08 µM) | relative viability ([1]; first compound 0.8 µM) | relative viability ([1]; first compound 2.53 µM) | relative viability ([1]; first compound 8 µM) | relative viability ([2]; first compound 0.08 µM) | relative viability ([2]; first compound 0.8 µM) | relative viability ([2]; first compound 2.53 µM) | relative viability ([2]; first compound 8 µM) |
| --- | --- | --- | --- | --- | --- | --- | --- | --- | --- | --- | --- | --- | --- | --- | --- | --- | --- | --- |
| NCI-H650 | 0.283 | 0.365 | 0.347 | 0.298 | 0.322 | 0.43 | 0.462 | 0.482 | 0.512 | 0.627 | 0.861 | 0.574 | 0.683 | 0.899 | 1.26 | 0.9 | 0.801 | 0.871 |
| NCI-H2087 | 0.287 | 0.325 | 0.252 | 0.305 | 0.299 | 0.446 | 0.491 | 0.383 | 0.537 | 0.181 | 1.04 | 0.911 | 0.889 | 1.11 | 1.07 | 0.997 | 1.01 | 0.94 |
| NCI-H1755 | 0.625 | 0.715 | 0.535 | 0.685 | 0.671 | 0.917 | 0.869 | 0.86 | 0.832 | 0.845 | 1.08 | 0.827 | 0.807 | 1.12 | 1.07 | 0.969 | 1.02 | 1.13 |
| COR-L 105 | 0.747 | 0.633 | 0.731 | 0.639 | 0.599 | 0.754 | 0.83 | 0.704 | 0.684 | 0.816 | 0.745 | 0.687 |  | 0.866 | 0.992 | 0.844 |  | 0.978 |
| NCI-H838 | 0.494 | 0.483 | 0.43 | 0.422 | 0.411 | 0.765 | 0.821 | 0.713 | 0.727 | 0.623 | 0.996 | 0.803 | 0.776 | 0.976 | 1.28 | 0.962 | 0.997 | 1.24 |
| NCI-H1993 | 0.614 | 0.621 | 0.655 | 0.543 | 0.573 | 1.18 | 1.19 | 1.05 | 0.933 | 0.773 | 0.979 | 0.834 | 0.82 | 0.774 | 0.65 | 0.7 | 0.699 | 0.695 |
| HARA | 0.508 |  | 0.36 | 0.605 | 0.389 | 0.762 | 0.764 | 0.869 | 0.84 | 0.51 | 1.46 | 1.05 | 0.783 | 1.27 | 1.38 | 0.852 | 0.75 | 1.19 |
| PC-3 [JPC-3] |  | 0.76 | 0.836 | 0.871 | 0.806 | 1.1 | 1.16 | 1.22 | 1.23 | 1.1 | 0.976 | 0.948 | 0.973 | 0.849 | 0.961 | 0.955 | 1.06 | 1.05 |
| ABC-1 | 0.946 | 1.04 | 0.907 | 1.12 | 0.949 | 0.987 | 0.712 | 0.868 | 0.508 | 0.732 | 1.21 | 1.16 | 0.875 | 1.29 | 0.801 | 0.849 | 0.735 | 1.04 |
| NCI-H441 | 0.236 | 0.215 | 0.254 | 0.234 | 0.225 | 0.547 | 0.532 | 0.738 | 0.699 | 0.542 | 0.956 | 0.729 | 0.676 | 0.701 | 0.755 | 0.506 | 0.497 | 0.47 |
| NCI-H2126 | 0.588 | 0.63 | 0.573 | 0.574 | 0.473 | 0.932 | 0.875 | 0.874 | 0.935 | 0.972 | 1.14 | 1.01 | 0.93 | 1.12 | 0.815 | 0.756 | 0.589 | 0.803 |
| BEN | 0.717 | 0.775 | 0.74 | 0.713 | 0.695 | 1.26 | 0.912 | 0.995 | 1.03 | 1.02 | 0.956 | 1.01 | 0.741 | 1.17 | 0.947 | 1.02 | 0.764 | 1.11 |
| HCC-366 | 0.346 | 0.329 |  | 0.369 | 0.192 | 0.358 | 0.31 | 0.263 | 0.271 | 0.192 | 1.26 | 0.523 | 0.265 | 0.828 | 0.969 | 0.609 | 0.427 | 1.06 |
| LCLC-103H | 0.701 | 0.815 |  | 0.756 | 0.711 | 0.797 | 0.77 | 0.761 | 0.779 | 0.769 | 1.12 | 1.04 | 0.979 | 1.03 | 1.12 | 1.05 | 0.936 | 1.24 |
| NCI-H596 | 1.26 | 0.87 | 0.971 | 1.17 | 1.04 | 0.76 | 0.793 | 0.703 | 0.799 | 0.651 | 1.08 | 0.999 | 0.765 | 0.982 | 1.3 | 0.934 | 0.928 | 1.27 |
| NCI-H1944 | 0.393 | 0.421 |  | 0.419 | 0.366 | 0.416 | 0.42 | 0.411 | 0.329 | 0.365 | 1.39 | 1.1 | 1.05 | 1.27 | 1.14 | 1.3 | 1.23 | 1.35 |
| A549 | 0.224 | 0.215 | 0.271 | 0.214 | 0.212 | 0.299 | 0.28 | 0.495 | 0.348 | 0.199 | 1.33 | 0.891 | 0.605 | 0.985 | 0.756 | 0.612 | 0.389 | 0.632 |
| HCC-827 | 0.343 | 0.33 | 0.308 | 0.336 | 0.337 | 0.652 | 0.621 | 0.704 | 0.661 | 0.528 | 0.959 | 0.853 | 0.979 | 0.965 | 1.01 | 0.93 | 0.965 | 1.09 |
| NCI-H727 | 0.767 | 0.855 | 0.762 | 0.899 | 0.61 | 0.603 |  |  | 0.506 | 0.333 | 0.713 | 0.786 | 0.77 | 0.988 | 0.3 | 0.225 | 0.319 | 0.354 |
| NCI-H1915 | 0.248 | 0.266 |  | 0.267 | 0.287 | 0.256 | 0.229 | 0.232 | 0.26 | 0.168 | 1.06 | 0.839 | 0.795 | 1.13 | 1.11 | 1.09 | 1.03 | 1.13 |
| NCI-H2347 | 0.587 | 0.563 | 0.582 | 0.694 | 0.659 | 0.516 | 0.537 | 0.506 | 0.594 | 0.43 | 0.709 | 0.703 | 0.747 | 0.696 | 1 | 0.942 | 0.911 | 1.03 |
| NCI-H647 | 0.391 | 0.44 | 0.349 | 0.374 | 0.309 | 0.848 | 0.616 | 0.495 | 0.551 | 0.573 | 1.66 | 1.1 | 1.16 | 1.6 | 1.84 | 1.1 | 1.17 | 1.53 |

From the supplement of paper PMC10307832
